Measurements reported in US20120208781A1, “AMINOGLYCOSIDE DOSING REGIMENS” (Achaogen, Inc., priority 2009, published 2012).
“And” between values parts separate entries of the source, which are not always exact repeats. Equal values may be shown once. Read-outs that look alike come from different tables or passages of the source.

Tests used:
[1] = Urine concentration analysis / urinary recovery of Compound 1 in beagle dogs; type: in vivo; conditions: 10 mg/kg IV; for % of Cmpd 1 recovered in urine: 24 hours; for concentration at 6 h / concentration at 12 h / concentration at 24 h: male, beagle, dog, urine, iv, read-out: Cmpd 1 urine concentration
Experimental: Male CD-1 mice, Sprague Dawley rats, and beagle dogs were administered Compound 1 intravenously. Compound 1 was preformulated as a sterile isotonic solution of 10 mg/mL in PBS. Specifically, male CD-1 mice were administered a single bolus IV injection of the Compound at 10 mg/kg, via a bolus IV injection into the tail vein. Two blood samples per mouse were collected by retro-orbital puncture into tubes containing the anticoagulant K2EDTA prior to dosing and at 0.033, 0.083, 0.25, 0.5, 1 and 24 hours. Rats were administered Compound 1 at 10 mg/kg via a bolus IV injection into the tail vein. Twelve blood samples per rat were collected via a jugular vein cannula into tubes containing the anticoagulant K2EDTA at various timepoints (i.e., 0.033, 0.083, 0.25, 0.5, 1, 2, 4, 6, 8, 10, 12, and 24 hours). Male beagle dogs were administered Compound 1 at 10 mg/kg through a temporary percutaneous catheter placed in a peripheral vein. Whole blood samples (0.5 mL) were collected from each dog prior to dosing and at 0.033, 0.083, 0.25, 0.5, 1, 2, 4, 6, 8, and 24 hours via direct venipuncture of a jugular or cephalic vein into tubes containing the anticoagulant K2EDTA. A sparse sampling method was employed to conserve animals and provide the best data possible from fewer mice. Samples were centrifuged, and plasma was collected and transferred into a new tube and frozen at −80° C. until they were analyzed.
Blood, urine, and kidney samples collected over 24 hours were analyzed for Compound 1 levels using LC-MS/MS. Method performance was acceptable in the concentration ranges necessary to determine plasma levels. Compound 1 plasma concentrations were determined by comparing Compound 1 concentration in the sample to a standard curve derived from LC-MS/MS measurements of the analyte. The standard curve fit was linear with a 1/x^2 weighting.

[2] = First-in-human phase 1 study: plasma pharmacokinetics of Compound 1; type: in vivo; conditions: for AUC(0-inf) / Cmax / clearance / half-life: both sexes, human, plasma, intravenous, human plasma, single dose
Source text: The initial, first-in-human (FIH) phase 1 study was a double-blind, randomized, placebo-controlled, parallel-group, single- and multiple-dose-escalation study to assess the safety, tolerability, and pharmacokinetics of Compound 1 administered IV to healthy adult volunteers. In addition, the design of this FIH phase 1 study provided rationale and support for dosing for the proposed phase 2 study in patients with cUTI (see FIG. 11).
This study was designed with four escalating dose arms in both single-dose and multiple-dose phases. Compound 1 was formulated as a sterile solution at a concentration of 50 mg/mL in 10 mL glass vials for intravenous (IV) administration (“Compound 1 Injection”). To support high-dose, short-course therapy, the FIH phase 1 study investigated escalating doses with shorter durations at the higher dosages. At least 32 male and female healthy subjects (8 per Cohort) were randomized to receive a single dose of either Compound 1 Injection or placebo administered IV by 10 minute infusion in a double-blinded manner, as shown below:
Cohort 1a: 1 mg/kg Single Dose (SD) only
Cohort 1b: 4 mg/kg SD and Multiple Doses (MD) for 10 days
Cohort 2: 7 mg/kg SD and MD for 10 days
Cohort 3: 11 mg/kg SD and MD for 5 days
Cohort 4: 15 mg/kg SD and MD for 3 days
Blood and urine samples for safety laboratory tests were obtained during the screen period, before and after the single-dose, before and after the multiple-dose (additional samples were obtained during multiple-dose period depending on MD duration). Blood samples for PK analysis were obtained with the single dose and first and last multiple-doses at the following times:
5, 10, 15, 20, 30, 45, 60 minutes after the start of the infusion; and
1, 1.5, 2, 2.5 (Cohorts 3 and 4 only), 3, 4, 6, 8, 12, 16, 24, and 48 hours after the start of the infusion.
For subjects in the 10-day multiple-dose cohorts, additional blood samples for PK analysis were obtained predose on days 11, 13, and 15.

[3] = Prediction of human plasma levels and half-life of Compound 1 from mouse, rat and dog data (allometric scaling); conditions: humans
Experimental: The PK profile of Compound 1 supports use of high doses in short infusions, administered once-daily to achieve high Cmax and AUC, which are important for both efficacy and safety.
In the phase 1 clinical studies described herein, Compound 1 was administered over a short infusion time period of 10 minutes. Based upon allometric scaling of the mouse, rat and dog nonclinical data, the Cmax associated with longer infusion time periods was predicted, as summarized in Table 21. As shown, longer infusion time periods are associated with lower Cmax, resulting in a lower Cmax to AUC ratio.

[4] = 1 mg/kg, 24 hours, Cohort 1 a (1 mg/kg), compartmental (2) analysis, ± SE
[5] = 1 mg/kg, 48 hours, Cohort 1a (1 mg/kg), noncompartmental analysis, ± SD
[6] = 4 mg/kg, 24 hours, Cohort 1b (4 mg/kg), compartmental (2) analysis, ± SE
[7] = 4 mg/kg, 48 hours, Cohort 1b (4 mg/kg), noncompartmental analysis, ± SD
[8] = 7 mg/kg, 24 hours, Cohort 2 (7 mg/kg), compartmental (2) analysis, ± SE
[9] = 7 mg/kg, 48 hours, Cohort 2 (7 mg/kg), noncompartmental analysis, ± SD
[10] = 11 mg/kg, 24 hours, Cohort 3 (11 mg/kg), compartmental (2) analysis, ± SE
[11] = 11 mg/kg, 48 hours, Cohort 3 (11 mg/kg), noncompartmental analysis, ± SD
[12] = 15 mg/kg, 24 hours, Cohort 4 (15 mg/kg), compartmental (2) analysis, ± SE
[13] = 15 mg/kg, 48 hours, Cohort 4 (15 mg/kg), noncompartmental analysis, ± SD
[14] = healthy volunteers, 1-15 mg/kg IV 10 minute infusion

For `CN[C@@H]1[C@@H](O)[C@@H](O[C@@H]2[C@@H](O)[C@H](O[C@H]3OC(CNCCO)=CC[C@H]3N)[C@@H](N)C[C@H]2NC(=O)[C@@H](O)CCN)OC[C@]1(C)O` [Compound 1, 6′-(2-Hydroxy-ethyl)-1-(4-amino-2(S)-hydroxy-butyryl)-sisomicin], the “% of Cmpd 1 recovered in urine” value ([1]; Dog 6001) was 134%, the “% of Cmpd 1 recovered in urine” value ([1]; Dog 6002) was 135% and the “% of Cmpd 1 recovered in urine” value ([1]; Dog 6003) was 87%. The “% of Cmpd 1 recovered in urine” value ([1]; Mean (±SD), 10 mg/kg) was 119% and 119 ± 22%, the “Cmpd 1 urine concentration” value ([1]; Dog 6001, Total) was 1070 µg/mL and the “Cmpd 1 urine concentration” value ([1]; Dog 6002, Total) was 573 µg/mL. The “Cmpd 1 urine concentration” value ([1]; Dog 6003, 6 hr) was 1180 µg/mL, the “Cmpd 1 urine concentration” value ([1]; Dog 6003, Total) was 1324 µg/mL and the concentration at 6 h ([1]; 10 mg/kg, Dog 6001, 6 hr) was 1000 µg/mL. For the same molecule, the concentration at 12 h ([1]; 10 mg/kg, Dog 6001, 12 hr) was 47 µg/mL, the concentration at 24 h ([1]; 10 mg/kg, Dog 6001, 24 hr) was 24000 ng/mL and the concentration at 6 h ([1]; 10 mg/kg, Dog 6002, 6 hr) was 505 µg/mL. The concentration at 24 h ([1]; 10 mg/kg, Dog 6002, 24 hr) was 68000 ng/mL, the concentration at 12 h ([1]; 10 mg/kg, Dog 6003, 12 hr) was 100 µg/mL and the concentration at 24 h ([1]; 10 mg/kg, Dog 6003, 24 hr) was 44000 ng/mL. For the same molecule, the “accumulation over three days” value ([2]; Cohort 4, 15 mg/kg every 24 hours for three days) was “very little, in any, accumulation”, the AUC(0-inf) [2, 4] was 15000 ± 1000 ng·h/mL and the Cmax [2, 4] was 8000 ± 800 ng/mL. The clearance [2, 4] was 1.13 mL/min/kg, the half-life ([2]; 1 mg/kg, 24 hours, Cohort 1 a (1 mg/kg), compartmental (2) analysis, ± SE, read-out: t1/2 alpha (converted)) was 30 ± 6 min and the half-life ([2]; 1 mg/kg, 24 hours, Cohort 1 a (1 mg/kg), compartmental (2) analysis, ± SE, read-out: t1/2 beta (converted)) was 210 ± 12 min. The AUC(0-inf) ([2]; 1 mg/kg, 48 hours, Cohort 1a (1 mg/kg)) was 14000 ± 1000 ng·h/mL, the Cmax [2, 5] was 7000 ± 700 ng/mL and the clearance [2, 5] was 1.23 mL/min/kg. For the same molecule, the AUC(0-inf) [2, 6] was 65000 ± 4000 ng·h/mL, the Cmax [2, 6] was 38000 ± 4000 ng/mL and the clearance [2, 6] was 1.03 mL/min/kg. The half-life ([2]; 4 mg/kg, 24 hours, Cohort 1b (4 mg/kg), compartmental (2) analysis, ± SE, read-out: t1/2 alpha (converted)) was 18 ± 6 min, the half-life ([2]; 4 mg/kg, 24 hours, Cohort 1b (4 mg/kg), compartmental (2) analysis, ± SE, read-out: t1/2 beta (converted)) was 180 ± 6 min and the AUC(0-inf) ([2]; 4 mg/kg, 48 hours, Cohort 1b (4 mg/kg)) was 61000 ± 8000 ng·h/mL. The Cmax [2, 7] was 32000 ± 5000 ng/mL, the clearance [2, 7] was 1.12 mL/min/kg and the AUC(0-inf) [2, 8] was 89000 ± 4000 ng·h/mL. The Cmax [2, 8] was 40000 ± 3000 ng/mL, the clearance [2, 8] was 1.3 mL/min/kg and the half-life ([2]; 7 mg/kg, 24 hours, Cohort 2 (7 mg/kg), compartmental (2) analysis, ± SE, read-out: t1/2 alpha (converted)) was 42 ± 6 min. For the same molecule, the half-life ([2]; 7 mg/kg, 24 hours, Cohort 2 (7 mg/kg), compartmental (2) analysis, ± SE, read-out: t1/2 beta (converted)) was 186 ± 6 min, the AUC(0-inf) ([2]; 7 mg/kg, 48 hours, Cohort 2 (7 mg/kg)) was 88000 ± 12000 ng·h/mL and the Cmax [2, 9] was 46000 ± 7000 ng/mL. The clearance [2, 9] was 1.35 mL/min/kg, the AUC(0-inf) [2, 10] was 186000 ± 8000 ng·h/mL and the Cmax [2, 10] was 106000 ± 10000 ng/mL. The clearance [2, 10] was 0.983 mL/min/kg, the half-life ([2]; 11 mg/kg, 24 hours, Cohort 3 (11 mg/kg), compartmental (2) analysis, ± SE, read-out: t1/2 alpha (converted)) was 18 ± 6 min and the half-life ([2]; 11 mg/kg, 24 hours, Cohort 3 (11 mg/kg), compartmental (2) analysis, ± SE, read-out: t1/2 beta (converted)) was 186 ± 6 min. The AUC(0-inf) ([2]; 11 mg/kg, 48 hours, Cohort 3 (11 mg/kg)) was 176000 ± 34000 ng·h/mL, the Cmax [2, 11] was 114000 ± 27000 ng/mL and the clearance [2, 11] was 1.08 mL/min/kg. The AUC(0-inf) [2, 12] was 250000 ± 9000 ng·h/mL, the Cmax [2, 12] was 116000 ± 8000 ng/mL and the clearance [2, 12] was 1 mL/min/kg. It also gave a half-life ([2]; 15 mg/kg, 24 hours, Cohort 4 (15 mg/kg), compartmental (2) analysis, ± SE, read-out: t1/2 alpha (converted)) of 48 ± 6 min, a half-life ([2]; 15 mg/kg, 24 hours, Cohort 4 (15 mg/kg), compartmental (2) analysis, ± SE, read-out: t1/2 beta (converted)) of 186 ± 12 min and an AUC(0-inf) ([2]; 15 mg/kg, 48 hours, Cohort 4 (15 mg/kg)) of 242000 ± 37000 ng·h/mL. The half-life ([2]; 15 mg/kg, 48 hours, Cohort 4 (15 mg/kg), compartmental (2) analysis, read-out: t½ alpha (converted)) was 180 min, the half-life ([2]; 15 mg/kg, 48 hours, Cohort 4 (15 mg/kg), compartmental (2) analysis, read-out: t½ beta (converted)) was 900 min and the Cmax [2, 13] was 144000 ± 45000 ng/mL. The clearance [2, 13] was 1.05 mL/min/kg, the “derived serum clearance rate across doses” value [2, 14] was “remained constant” and the “dose proportionality of plasma PK” value [2, 14] was “clear dose proportionality”. For the same molecule, the “predicted Cmax with longer infusion time periods” value [3] was “lower Cmax”.
